Like-named read-outs stand apart in the source and are kept apart here.
Assays:
SARS-CoV-2 nsp3-mac1 [1] = target: T1, SARS-CoV-2 nsp3-mac1 (Severe acute respiratory syndrome coronavirus 2, UniProt P0DTD1); assay: biochemical; format: biochemical; settings: SARS-CoV-2 nsp3 macrodomain TR-FRET single point
SARS-CoV-2 nsp3-mac1 [2] = target: T1, SARS-CoV-2 nsp3-mac1; assay: biochemical; parameters: SARS-CoV-2 nsp3 macrodomain TR-FRET single point, per cent inhibition, n=2
[3] = read-out: perc_inhibition_mean, batch_name=ASAP-0000254-001
[4] = read-out: perc_inhibition_mean, batch_name=ASAP-0000297-001
[5] = read-out: perc_inhibition_mean, batch_name=ASAP-0000248-001
[6] = read-out: perc_inhibition_mean, batch_name=ASAP-0000428-001
[7] = read-out: perc_inhibition_mean, batch_name=ASAP-0000260-001
[8] = read-out: perc_inhibition_mean, batch_name=ASAP-0000250-001
[9] = read-out: perc_inhibition_mean, batch_name=ASAP-0000458-001
[10] = read-out: perc_inhibition_mean, batch_name=ASAP-0000267-001
[11] = read-out: perc_inhibition_mean, batch_name=ASAP-0000308-001

Cc1nn(C)c(NCc2nc(CO)cs2)c1C#N [ASAP-0000113]
perc_inhibition_mean (SARS-CoV-2 nsp3-mac1 [1]; concentration 50.0 uM): 2.1%
inhibition at 50 µM (SARS-CoV-2 nsp3-mac1 [2]; read-out: perc_inhibition_mean, batch_name=ASAP-0000113-001): 2.1%

Cc1ccc(O)c(CNc2ncnc3[nH]cnc23)n1 [ASAP-0000254]
perc_inhibition_mean (SARS-CoV-2 nsp3-mac1 [1]; concentration 50.0 uM): 0.262%
perc_inhibition_mean (SARS-CoV-2 nsp3-mac1 [1]; concentration 100.0 uM): 6.284%
inhibition at 50 µM (SARS-CoV-2 nsp3-mac1 [2]; [3]): 0.262%
inhibition at 100 µM (SARS-CoV-2 nsp3-mac1 [2]; [3]): 6.28%

CC1(C)CN(C(=O)c2ccc(NC(=O)Nc3ccccc3)cc2)C[C@@]1(F)C(=O)O [ASAP-0000297]
perc_inhibition_mean (SARS-CoV-2 nsp3-mac1 [1]; concentration 49.75 uM, n=2): -2.566%
perc_inhibition_mean (SARS-CoV-2 nsp3-mac1 [1]; concentration 99.5 uM, n=2): -5.193%
inhibition at 49.75 µM (SARS-CoV-2 nsp3-mac1 [2]; [4]): -2.57%
inhibition at 99.5 µM (SARS-CoV-2 nsp3-mac1 [2]; [4]): -5.19%

c1ccc(-c2cc(CNc3ncnc4[nH]ccc34)on2)cc1 [ASAP-0000064]
perc_inhibition_mean (SARS-CoV-2 nsp3-mac1 [1]; concentration 100.0 uM): -3.456%
inhibition at 100 µM (SARS-CoV-2 nsp3-mac1 [2]; read-out: perc_inhibition_mean, batch_name=ASAP-0000064-001): -3.46%

O=C(NCc1ccc(Cl)cn1)c1ncnc2[nH]ccc12 [ASAP-0000248]
perc_inhibition_mean (SARS-CoV-2 nsp3-mac1 [1]; concentration 50.0 uM): -4.958%
perc_inhibition_mean (SARS-CoV-2 nsp3-mac1 [1]; concentration 100.0 uM): -2.568%
inhibition at 50 µM (SARS-CoV-2 nsp3-mac1 [2]; [5]): -4.96%
inhibition at 100 µM (SARS-CoV-2 nsp3-mac1 [2]; [5]): -2.57%

CC(C)[C@H]1CNC(=O)CN1c1ncnc2[nH]ccc12 [ASAP-0000428]
perc_inhibition_mean (SARS-CoV-2 nsp3-mac1 [1]; concentration 49.75 uM): 6.836%
perc_inhibition_mean (SARS-CoV-2 nsp3-mac1 [1]; concentration 99.5 uM): 17.564%
inhibition at 49.75 µM (SARS-CoV-2 nsp3-mac1 [2]; [6]): 6.84%
inhibition at 99.5 µM (SARS-CoV-2 nsp3-mac1 [2]; [6]): 17.6%

Oc1cc(CNc2ncnc3[nH]cnc23)ccn1 [ASAP-0000260]
perc_inhibition_mean (SARS-CoV-2 nsp3-mac1 [1]; concentration 50.0 uM, n=2): -0.821%
perc_inhibition_mean (SARS-CoV-2 nsp3-mac1 [1]; concentration 100.0 uM, n=2): -3.73%
inhibition at 50 µM (SARS-CoV-2 nsp3-mac1 [2]; [7]): -0.821%
inhibition at 100 µM (SARS-CoV-2 nsp3-mac1 [2]; [7]): -3.73%

CN(Cc1nccn1Cc1ccccc1)c1ncnc2[nH]ccc12 [ASAP-0000250]
perc_inhibition_mean (SARS-CoV-2 nsp3-mac1 [1]; concentration 50.0 uM): -7.218%
perc_inhibition_mean (SARS-CoV-2 nsp3-mac1 [1]; concentration 100.0 uM): -8.82%
inhibition at 50 µM (SARS-CoV-2 nsp3-mac1 [2]; [8]): -7.22%
inhibition at 100 µM (SARS-CoV-2 nsp3-mac1 [2]; [8]): -8.82%

O=C(O)c1ccc2c(c1)ncn2-c1ccc(CNC(=O)c2ncnc3[nH]ccc23)cc1 [ASAP-0000458]
perc_inhibition_mean (SARS-CoV-2 nsp3-mac1 [1]; concentration 49.75 uM): -33.429%
perc_inhibition_mean (SARS-CoV-2 nsp3-mac1 [1]; concentration 99.5 uM): -4.649%
inhibition at 49.75 µM (SARS-CoV-2 nsp3-mac1 [2]; [9]): -33.4%
inhibition at 99.5 µM (SARS-CoV-2 nsp3-mac1 [2]; [9]): -4.65%

c1ccc([C@@H](CNc2ncnc3n[nH]cc23)N2CCOCC2)cc1 [ASAP-0000001]
perc_inhibition_mean (SARS-CoV-2 nsp3-mac1 [1]; concentration 50.0 uM): -0.781%
inhibition at 50 µM (SARS-CoV-2 nsp3-mac1 [2]; read-out: perc_inhibition_mean, batch_name=ASAP-0000001-001): -0.781%

O=S(=O)(NC[C@H]1CCOC1)c1cn2c(n1)CCCC2 [ASAP-0000100]
perc_inhibition_mean (SARS-CoV-2 nsp3-mac1 [1]; concentration 50.0 uM): -3.203%
inhibition at 50 µM (SARS-CoV-2 nsp3-mac1 [2]; read-out: perc_inhibition_mean, batch_name=ASAP-0000100-001): -3.2%

O=C(Nc1nc2ccc(F)cc2[nH]1)c1cc(N2CCNC2=O)ccc1F [ASAP-0000067]
perc_inhibition_mean (SARS-CoV-2 nsp3-mac1 [1]; concentration 50.0 uM): -7.707%
inhibition at 50 µM (SARS-CoV-2 nsp3-mac1 [2]; read-out: perc_inhibition_mean, batch_name=ASAP-0000067-001): -7.71%

Cn1ncc2ncnc(NCc3ncccc3O)c21 [ASAP-0000119]
perc_inhibition_mean (SARS-CoV-2 nsp3-mac1 [1]; concentration 50.0 uM): -2.547%
inhibition at 50 µM (SARS-CoV-2 nsp3-mac1 [2]; read-out: perc_inhibition_mean, batch_name=ASAP-0000119-001): -2.55%

O=C(Nc1cnc2[nH]ncc2c1)c1cccc(-c2noc(C(F)(F)F)n2)c1 [ASAP-0000267]
perc_inhibition_mean (SARS-CoV-2 nsp3-mac1 [1]; concentration 50.0 uM, n=2): -0.675%
perc_inhibition_mean (SARS-CoV-2 nsp3-mac1 [1]; concentration 100.0 uM, n=2): -1.621%
inhibition at 50 µM (SARS-CoV-2 nsp3-mac1 [2]; [10]): -0.675%
inhibition at 100 µM (SARS-CoV-2 nsp3-mac1 [2]; [10]): -1.62%

NS(=O)(=O)c1ccccc1CNc1ncnc2[nH]ccc12 [ASAP-0000130]
perc_inhibition_mean (SARS-CoV-2 nsp3-mac1 [1]; concentration 50.0 uM): 3.656%
inhibition at 50 µM (SARS-CoV-2 nsp3-mac1 [2]; read-out: perc_inhibition_mean, batch_name=ASAP-0000130-001): 3.66%

CCn1cc(CNc2nc3[nH]cnc3c(=O)[nH]2)nn1 [ASAP-0000127]
perc_inhibition_mean (SARS-CoV-2 nsp3-mac1 [1]; concentration 50.0 uM): -0.991%
inhibition at 50 µM (SARS-CoV-2 nsp3-mac1 [2]; read-out: perc_inhibition_mean, batch_name=ASAP-0000127-001): -0.991%

Fc1ccc(Oc2cc(CNc3ncnc4nc[nH]c34)ccn2)cc1 [ASAP-0000021]
perc_inhibition_mean (SARS-CoV-2 nsp3-mac1 [1]; concentration 50.0 uM): 2.011%
inhibition at 50 µM (SARS-CoV-2 nsp3-mac1 [2]; read-out: perc_inhibition_mean, batch_name=ASAP-0000021-001): 2.01%

CNC(=O)c1ccnc(NC(=O)c2ccc(N3CCOCC3)cc2)c1 [ASAP-0000115]
perc_inhibition_mean (SARS-CoV-2 nsp3-mac1 [1]; concentration 50.0 uM): -12.336%
inhibition at 50 µM (SARS-CoV-2 nsp3-mac1 [2]; read-out: perc_inhibition_mean, batch_name=ASAP-0000115-001): -12.3%

O=C(Nc1ccccc1)Nc1ccc(C(=O)NCCc2cccnc2)cc1 [ASAP-0000308]
perc_inhibition_mean (SARS-CoV-2 nsp3-mac1 [1]; concentration 49.75 uM, n=2): 1.269%
perc_inhibition_mean (SARS-CoV-2 nsp3-mac1 [1]; concentration 99.5 uM, n=2): 10.372%
inhibition at 49.75 µM (SARS-CoV-2 nsp3-mac1 [2]; [11]): 1.27%
inhibition at 99.5 µM (SARS-CoV-2 nsp3-mac1 [2]; [11]): 10.4%

Source: article doi:10.1101/2024.08.19.608619, “Discovery of potent SARS-CoV-2 nsp3 macrodomain inhibitors uncovers lack of translation to cellular antiviral response” (bioRxiv, 2024)
